Test [1] addresses T1, Y1 receptor (Homo sapiens, UniProt P25929).
T1 sequence (P25929 1-384): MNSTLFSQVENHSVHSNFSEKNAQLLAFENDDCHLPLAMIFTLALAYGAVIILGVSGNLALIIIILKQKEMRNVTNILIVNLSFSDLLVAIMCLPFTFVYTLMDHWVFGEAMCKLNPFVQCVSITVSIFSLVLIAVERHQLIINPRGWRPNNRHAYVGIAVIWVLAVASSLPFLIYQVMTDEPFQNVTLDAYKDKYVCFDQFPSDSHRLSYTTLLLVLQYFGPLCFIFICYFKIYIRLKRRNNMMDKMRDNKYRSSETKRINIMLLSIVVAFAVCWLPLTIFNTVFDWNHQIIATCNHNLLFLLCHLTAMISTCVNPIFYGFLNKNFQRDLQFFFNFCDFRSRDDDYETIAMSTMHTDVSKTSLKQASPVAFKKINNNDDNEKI
The conditions noted are these: Table 1, rank orders from published reports; cited from earlier work.

Test [2] has as its target T1, Y1 receptor. Briefly: Competitive displacement / binding of 125I-PYY, membranes of COS-7 cells transiently expressing human Y1 receptors. On the set-up: expressed in transfected cells; host or cells: COS-7.
Method: (§1) Cell culture: COS-7 cells were grown on 150 mm plates (Corning) in D-MEM with supplements (Dulbecco's Modified Eagle Medium with 10% bovine calf serum, 2 mM glutamine, 100 units/ml penicillin/80 units/ml streptomycin) at 37° C., 5% CO2.
Membrane Harvest: Membranes were harvested from COS-7 cells 48 hours after transfection and from SK-N-Be(2) seven days after splitting.
(§2) Radioligand Binding to Membrane Suspensions: Membrane suspensions were diluted in binding buffer supplemented with 0.1% bovine serum albumin and 0.1% bacitracin to yield an optimal membrane protein concentration: ˜0.02 mg/ml for human Y1 receptors, ˜0.015 mg/ml for hp25a receptors, and ˜0.25 mg/ml for SK-N-Be(2). […] Incubations were terminated by filtration over Whatman GF/C filters (pre-coated with 0.5% polyethyleneimine and air-dried before use). […] Specific binding in time course and competition studies was typically 80%; most non-specific binding was associated with the filter.
Test [3] addresses T2, human hp25a (Y4) receptor (Homo sapiens, UniProt P50391).
T2 construct: The entire coding region of hp25a (1127 bp); expressed in transfected cells; host or cells: COS-7
Briefly: Competitive displacement / binding of 125I-PYY, membranes of COS-7 cells transiently expressing hp25a (human Y4) receptors.
Method: as §1
Membrane Harvest: Membranes were harvested from COS-7 cells 48 hours after transfection and from SK-N-Be(2) seven days after splitting. […] Large particles and debris were cleared by low speed centrifugation (200×g, 10 min, 4° C.).
as §2

The next test has as its target Y3 receptor. The conditions noted are these: Table 1, rank orders from published reports; cited from earlier work.
In a further test the target is PP receptor. The conditions noted are these: Table 1, rank orders from published reports; cited from earlier work.
In the next test the test system is PYY-preferring receptor. The conditions noted are these: Laburthe et al., 1986, 1990; cited from earlier work.
The mark [4] stands for this setting: N-terminal deletion of porcine NPY.

T2 sequence (P50391 whole entry): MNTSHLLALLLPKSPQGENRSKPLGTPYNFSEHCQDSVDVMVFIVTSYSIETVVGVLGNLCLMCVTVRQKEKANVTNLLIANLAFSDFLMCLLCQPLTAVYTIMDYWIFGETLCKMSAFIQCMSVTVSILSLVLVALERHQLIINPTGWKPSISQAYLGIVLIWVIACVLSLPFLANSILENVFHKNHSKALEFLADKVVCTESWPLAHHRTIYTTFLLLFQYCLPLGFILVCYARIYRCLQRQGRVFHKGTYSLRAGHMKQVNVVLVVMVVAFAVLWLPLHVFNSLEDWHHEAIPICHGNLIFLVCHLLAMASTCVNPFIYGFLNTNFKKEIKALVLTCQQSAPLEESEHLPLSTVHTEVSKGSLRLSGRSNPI

For “NPY2-36: NPY fragment 2-36, species not stated (Table 1)”, the “Affinity (−pKi or −pEC50), Y1” value with Y1 receptor [1] is listed as 9 to 8.

Regarding “NPY13-36: NPY carboxyl-terminal fragment 13-36, species not stated; b153 folds follow porcine data”, in the test with Y1 receptor [2] (setting [4]), the “decrease in affinity compared with full length parent peptide, human Y1 receptors” value is listed as 1000 fold. The “decrease in affinity compared with full length parent peptide, hp25a” value in test [3] (setting [4]) was 33 fold.

In the case of Neuropeptide Y [NPY], the “Affinity (−pKi or −pEC50), Y3” value on Y3 receptor was 10 to 9. Also, the “Affinity (−pKi or −pEC50), PP” value on PP receptor is <6.

Regarding “PYY: peptide YY, species not stated at the place”, at Y3 receptor, the “Affinity (−pKi or −pEC50), Y3” value is <6. Besides, in the test on PYY-preferring receptor, the “higher affinity for PYY than for NPY” value was 5-10 fold.

As to “[LEU^31, Pro^34]NPY: analog of NPY modified at residues 31 and 34, species not stated (Table 1)”, on PP receptor, the “Affinity (−pKi or −pEC50), PP” value is recorded as 9 to 8.

Take “[Pro^34]NPY: NPY analog with Pro34 (Table 1)”: the “Affinity (−pKi or −pEC50), Y3” value on Y3 receptor is recorded as 9 to 8.

Take ^125I-PYY: the “observed association rate (Kobs)” value on Y1 receptor [2] (human Y1 in COS-7) worked out at 0.06 ± 0.02 min⁻¹; in test [3] (hp25a, 0.06 nM 125I-PYY), 0.12 ± 0.02 min⁻¹.

(Values after patent US6913892B1, “Method of obtaining compositions comprising Y4 specific compounds” (H. Lundbeck A/S, priority 1993, dated 2005).)
